This note sets out measurements from ChEMBL document CHEMBL4477198, “Metabolites from the Fungal Endophyte Aspergillus austroafricanus in Axenic Culture and in Fungal-Bacterial Mixed Cultures” (J Nat Prod, 2016).

Usually MIC stands for the lowest concentration found to suppress growth. Read a high MIC as a less susceptible organism. What is called EC50 is the concentration that produces a half-maximal response. Lower therefore signals greater potency.

The subject of experiment [1] is Mycobacterium tuberculosis. In words: Antibacterial activity against Mycobacterium tuberculosis H37Rv by broth microdilution method. Type of experiment: functional. Background: In broth dilution the organism is exposed to a series of concentrations in liquid medium.
In experiment [2] the test system is Staphylococcus aureus. In words: Antibacterial activity against Staphylococcus aureus ATCC 700699 by broth microdilution method. Type of experiment: functional.
In experiment [3] the test system is Bacillus subtilis. Briefly: Antibacterial activity against Bacillus subtilis 168 trpC2 by broth microdilution method. Type of experiment: functional.
Experiment [4] has as its system L5178Y. In words: Cytotoxicity against mouse L5178Y cells by MTT assay. Type of experiment: functional, cell-based. (In general: Formazan colour is commonly taken as a measure of viable cells.)

Active and inactive are the calls of the source. No cut-off for these calls is given here.

On to `O=c1cc(CO)c(O)co1`, for which the outcome in experiment [1] was inactive. `COc1c(O)c(O)c(O)c2oc3c(Oc4c(O)cc(C)c5c(=O)c6c(O)cc(CO)cc6oc45)c(O)cc(C)c3c(=O)c12`: in experiment [1], the result was inactive.

On to `C=CC(C)(C)[C@@]12C=C(OC)C(=O)N3/C(=C/c4c[nH]cn4)C(=O)N[C@]31N(OC)c1ccccc12`, for which, in experiment [1], the outcome was inactive.

Turning to `COc1c(N2C[C@@H]3CCCN[C@@H]3C2)c(F)cc2c(=O)c(C(=O)O)cn(C3CC3)c12` [MOXIFLOXACIN], 1.56 µg/mL was the least that counted as inhibitory in experiment [2] (MIC). Consider `Cc1cc(O)c(O)c(Oc2cc(C)cc(O)c2O)c1`, for which, in experiment [1], the outcome was inactive. For the same compound, it took 25 µM to inhibit growth in experiment [2] (MIC). In the same order, the values of `Cc1cc(O)c(Oc2cc(C)cc(O)c2O)c(O)c1` are “inactive” and 25 µM. As to `CC1(C)CCC[C@](C)(c2ccc(C(=O)O)cc2O)O1`, the outcome in experiment [1] was inactive.

Take `COC(=O)c1c(O)ccc2oc3cc(CO)cc(O)c3c(=O)c12`: in experiment [1], the outcome was inactive. The same measure, in the same setting: for `CC(C)(O)CCC[C@](C)(O)c1ccc(C(=O)O)cc1` the value was “inactive”. In experiment [3], `O=C(O)c1cn(C2CC2)c2cc(N3CCNCC3)c(F)cc2c1=O` [CIPROFLOXACIN] displayed a minimal inhibitory concentration (MIC) of 0.008 µg/mL. As for `Cc1cc(O)cc(Oc2cc(C)c(C(N)=O)c(O)c2)c1`, the outcome in experiment [1] was inactive. Turning to `CC(C)[C@@H](C)/C=C/[C@@H](C)[C@H]1CC[C@H]2C3=CC=C4C[C@@H](O)CC[C@]4(C)[C@H]3CC[C@]12C` [ERGOSTEROL], the result in experiment [1] was inactive. For the same compound, the concentration giving a half-maximal response (EC50) in experiment [4] is 12.6 µM. For the compound `Cc1cc(O)cc(Oc2cc(C)cc(O)c2)c1` [DIORCINOL], in experiment [1], the outcome was inactive. In experiment [3], this compound showed a minimum inhibitory concentration (MIC) of 34.8 µM.
